# Key:
# CDK1/CyclinB = target: T1, CDK1/CyclinB (Homo sapiens, UniProt P06493); test: Activated CDK1/CyclinB kinase inhibitory activity assay; type: biochemical
# T1 construct: purchased Upstate Discovery
# Description: (§1) The reaction is allowed to proceed for 2 to 4 hours before being stopped with an excess of ortho-phosphoric acid (5 μl at 2%). γ^33P-ATP which remains unincorporated into the histone H1 is separated from phosphorylated histone H1 on a Millipore MAPH filter plate. The wells of the MAPH plate are wetted with 0.5% orthophosphoric acid, and then the results of the reaction are filtered with a Millipore vacuum filtration unit through the wells. Following filtration, the residue is washed twice with 200 μl of 0.5% orthophosphoric acid. Once the filters have dried, 20 μl of Microscint 20 scintillant is added, and then counted on a Packard Topcount for 30 seconds.
# CDK1/CyclinB assay is identical to the CDK2/CyclinA above except that CDK1/CyclinB (Upstate Discovery) is used and the enzyme is diluted to 6.25 nM.
# CDK2/CyclinA = CDK2/CyclinA (Homo sapiens, UniProt P24941); test: Activated CDK2/CyclinA kinase inhibitory activity assay; type: biochemical
# Description: as §1
# HCT-116 cell line = test: Anti-proliferative activity (Alamar Blue assay); type: cell-based, human
# Description: The anti-proliferative activities of compounds of the invention can be determined by measuring the ability of the compounds to inhibition of cell growth in a number of cell lines. Inhibition of cell growth is measured using the Alamar Blue assay (Nociari, M. M, Shalev, A., Benias, P., Russo, C. Journal of Immunological Methods 1998, 213, 157-167). The method is based on the ability of viable cells to reduce resazurin to its fluorescent product resorufin. For each proliferation assay cells are plated onto 96 well plates and allowed to recover for 16 hours prior to the addition of inhibitor compounds for a further 72 hours. At the end of the incubation period 10% (v/v) Alamar Blue is added and incubated for a further 6 hours prior to determination of fluorescent product at […]. In the case of the non-proliferating cell assay cells are maintained at confluence for 96 hour prior to the addition of inhibitor compounds for a further 72 hours. The number of viable cells is determined by Alamar Blue assay as before. In addition, any morphological changes are recorded. Cell lines can be obtained from the ECACC (European Collection of cell Cultures).
# In particular, compounds of the invention were tested against the HCT-116 cell line (ECACC Reference: 91091005) derived from human colon carcinoma.
# [1] = Salt stability at 40° C. 75% RH followed by XRPD; type: physicochemical; details: 40° C. and 75% RH over the period of 1-2 month
# Description: Approximately 15 mg of samples for the stability study were gently ground by marble mortar and transferred to a Petri dish in a thin layer. Samples were then placed in sealed containers containing saturated NaCl solution with an excess of undissolved NaCl. […] Samples were analysed by X-ray powder diffraction (XRPD) in regular intervals. Samples for XRPD data collection were loaded into crystallographic capillary (from Hampton Research, made of Quartz, diameter=0.4 mm). […] 2D Images were collected while spinning φ axis with a detector to crystal distance of 250 mm. Data collection was controlled by CrystalClear software and 2D images were converted to 1D plot (2θ vs. Intensity) by Datasqueeze (intensity averaged over the azimuthal angle 0<χ<360° for 2θ range 3-30° in 0.01° steps).
# [2] = Gravimetric vapour sorption (GVS); type: physicochemical; details: 0-90% RH cycle, 25° C.
# Description: The sample size was ca. 10-25 mg. […] The sample was loaded and unloaded at room humidity and temperature (ca. 40% RH, 25° C.) and analysed afterwards by XRPD (using a Bruker AXS C2 GADDS system).
# T1 sequence (P06493 whole entry): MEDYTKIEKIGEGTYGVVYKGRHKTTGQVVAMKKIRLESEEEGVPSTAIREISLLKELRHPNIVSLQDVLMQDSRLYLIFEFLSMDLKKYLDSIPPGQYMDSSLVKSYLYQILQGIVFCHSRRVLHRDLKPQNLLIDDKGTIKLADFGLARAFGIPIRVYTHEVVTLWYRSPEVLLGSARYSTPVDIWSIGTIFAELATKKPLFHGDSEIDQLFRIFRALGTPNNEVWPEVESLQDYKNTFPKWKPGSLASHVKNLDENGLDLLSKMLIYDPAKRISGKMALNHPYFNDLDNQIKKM
# T1 sequence (P14635 whole entry partner): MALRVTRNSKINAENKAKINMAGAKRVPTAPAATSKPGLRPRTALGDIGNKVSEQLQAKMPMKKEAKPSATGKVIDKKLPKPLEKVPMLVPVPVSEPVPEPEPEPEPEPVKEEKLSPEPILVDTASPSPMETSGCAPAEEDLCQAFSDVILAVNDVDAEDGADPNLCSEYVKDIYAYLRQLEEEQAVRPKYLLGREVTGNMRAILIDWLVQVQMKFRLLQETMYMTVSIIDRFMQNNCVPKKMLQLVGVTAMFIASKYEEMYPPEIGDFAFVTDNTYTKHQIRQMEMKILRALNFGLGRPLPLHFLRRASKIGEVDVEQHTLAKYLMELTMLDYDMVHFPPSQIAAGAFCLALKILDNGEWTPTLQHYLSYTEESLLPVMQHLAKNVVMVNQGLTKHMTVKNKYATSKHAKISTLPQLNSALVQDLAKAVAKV
Structure (SMILES),IC50 (CDK1/CyclinB) [µM],IC50 (CDK2/CyclinA) [µM],other results
"COc1cc2nc(-c3n[nH]cc3NC(=O)C3CN(C(C)C)CCO3)[nH]c2cc1OC (racemic) [Example 16, N-[3-(5,6-dimethoxy-1H-benzimidazol-2-yl)-1H-pyrazol-4-yl]-rac-4 isopropyl-2-morpholine carboxamide]",< 10,,
"COc1cc2nc(-c3n[nH]cc3NC(=O)C3CCCN(C)C3)[nH]c2cc1OC (racemic) [Example 17, N-[3-(5,6-dimethoxy-H-benzimidazol-2-yl)-1H-pyrazol-4-yl]-rac-1-methyl-piperidine 3-carboxamide]",< 10,,
"COc1ccc(C#N)cc1C(=O)Nc1c[nH]nc1-c1nc2cc(CN3CCOCC3)ccc2[nH]1 [Example 1, 5-cyano-2-methoxy-N-[3-(5-morpholin-4-ylmethyl-1H-benzoimidazol-2-yl)-1H-pyrazol-4-yl]-benzamide]",< 1,< 1,
"Cc1nc2sccn2c1C(=O)Nc1c[nH]nc1-c1nc2cc(CN3CCOCC3)ccc2[nH]1 [Example 2, 6-methyl-imadazol[2,1-b]thiazole-5-carboxylic acid[3-(5-morpholin-4-ylmethyl-1H-benzoimidazol-2-yl)-1H-pyrazol-4-yl]-amide]",< 50,,
"N#CCC(=O)Nc1c[nH]nc1-c1nc2cc(CN3CCOCC3)ccc2[nH]1 [Example 3, 2-cyano-N-[3-(5-morpholin-4-ylmethyl-1H-benzoimidaxol-2-yl)-1H-pyrazol-4-yl]-acetamide]",< 10,,
"N#CC(C(=O)Nc1c[nH]nc1-c1nc2cc(CN3CCOCC3)ccc2[nH]1)C1CC1 (stereo not drawn) [Example 4, 2-Cyano-2-cyclopropyl-N-[3-(5-morpholin-4-ylmethyl-1H-benzoimidazol-2-yl)-1H-pyrazol-4-yl]-acetamide]",< 1,,
CC(C)(CO)C(=O)Nc1c[nH]nc1-c1nc2cc(CN3CCOCC3)ccc2[nH]1 [Example 8],< 10,,
O=C(Nc1c[nH]nc1-c1nc2cc(CN3CCOCC3)ccc2[nH]1)C1CCOC1 (stereo not drawn) [Example 9],< 10,,
O=C(CC1CC1)Nc1c[nH]nc1-c1nc2cc(CN3CCOCC3)ccc2[nH]1 [Example 10],< 1,< 1,
O=C(Nc1c[nH]nc1-c1nc2cc(CN3CCOCC3)ccc2[nH]1)C1CCCO1 (stereo not drawn) [Example 11],< 1,< 1,
O=C(Nc1c[nH]nc1-c1nc2cc(CN3CCOCC3)ccc2[nH]1)[C@@H]1CCCO1 [Example 13],< 1,,
"COc1cc2nc(-c3n[nH]cc3NC(=O)c3cc(Cl)cc(N4CCN(C)CC4)c3)[nH]c2cc1OC [Example 18, 3-chloro-N-(5,6-dimethoxy-1H-benzoimidazol-2-yl)-1H-pyrazol-4-yl-5-(4-methyl-piperazin-1-yl)-benzamide]",,< 1,
COc1cc2nc(-c3n[nH]cc3NC(=O)c3ccoc3CN(C)C)[nH]c2cc1OC [Example 20],< 10,< 1,
"COc1ccc(Cl)cc1C(=O)Nc1c[nH]nc1-c1nc2cc(CN3CCN(C)CC3)ccc2[nH]1 [Example 22, 5-chloro-2-methoxy-N-{3-[5-(4-methyl-piperazin-1-ylmethyl)-1H-benzoimidazol-2-yl]-1H-pyrazol-4-yl}-benzamide]",< 1,< 1,
O=C(NCc1c(F)cccc1F)Nc1c[nH]nc1-c1nc2cc(CN3CCOCC3)ccc2[nH]1 [Example 23],< 50,,
"O=C(Nc1c[nH]nc1-c1nc2cc(CN3CCOCC3)ccc2[nH]1)NC1CC1 [Example 24, 1-cyclopropyl-3-[3-(5-morpholin-4-ylmethyl-1H-benzoimidazol-2-yl)-1H-pyrazol-4-yl]-urea]",< 10,,"minimum concentration at which polyploidy or multinucleation is observed (HCT-116 cell line; HCT-116 cell line): less than 100 nM; IC50 (HCT-116 cell line; Homo sapiens, HCT-116, 72 hours compound, Alamar Blue, read-out: IC50, inhibition of cell growth, HCT-116 cell line): < 1 µM; change of XRPD pattern on storage [1]: do not change"
O=C(NCC1CCOCC1)Nc1c[nH]nc1-c1nc2cc(CN3CCOCC3)ccc2[nH]1 [Example 26],< 50,,
O=C(Nc1c[nH]nc1-c1nc2cc(CN3CCOCC3)ccc2[nH]1)NC1CCOCC1 [Example 27],< 50,,
O=C(Nc1c[nH]nc1-c1nc2cc(CN3CCOCC3)ccc2[nH]1)N1Cc2ccccc2C1 [Example 28],< 10,,
O=C(Nc1c[nH]nc1-c1nc2cc(CN3CCOCC3)ccc2[nH]1)N1CCc2ccccc21 [Example 29],< 10,,
O=C(Nc1c[nH]nc1-c1nc2cc(CN3CCOCC3)ccc2[nH]1)NN1CCCC1 [Example 30],,< 1,
CN(C)NC(=O)Nc1c[nH]nc1-c1nc2cc(CN3CCOCC3)ccc2[nH]1 [Example 31],< 10,< 1,

Structure (SMILES),IC50 (CDK1/CyclinB) [µM],IC50 (CDK2/CyclinA) [µM],other results
O=C(Nc1c[nH]nc1-c1nc2cc(CN3CCOCC3)ccc2[nH]1)NN1CCOCC1 [Example 32],< 10,< 1,
CS(=O)(=O)CCNC(=O)Nc1c[nH]nc1-c1nc2cc(CN3CCOCC3)ccc2[nH]1 [Example 33],< 50,,
O=C(NCC1CC1)Nc1c[nH]nc1-c1nc2cc(CN3CCOCC3)ccc2[nH]1 [Example 34],< 10,,
"CN(C(=O)Nc1c[nH]nc1-c1nc2cc(CN3CCOCC3)ccc2[nH]1)c1ccc(F)cc1 [Example 37, 1-(4-fluorophenyl)-1-methyl-3-[3-(5-morpholin-4-ylmethyl-1H-benzimadazol-2-yl)-1H-pyrazol-4-yl]-urea]",< 50,,
Cn1cccc(NC(=O)Nc2c[nH]nc2-c2nc3cc(CN4CCOCC4)ccc3[nH]2)c1=O [Example 39],< 10,,
CN(C(=O)Nc1c[nH]nc1-c1nc2cc(CN3CCOCC3)ccc2[nH]1)c1cccc(F)c1 [Example 41],< 10,,
CN(C(=O)Nc1c[nH]nc1-c1nc2cc(CN3CCOCC3)ccc2[nH]1)c1ccc(F)cc1F [Example 42],< 1,,
CN(C(=O)Nc1c[nH]nc1-c1nc2cc(CN3CCOCC3)ccc2[nH]1)c1ccccc1F [Example 43],< 50,,
"O=C(Nc1ccc(F)cc1)Nc1c[nH]nc1-c1nc2cc(CN3CCOCC3)ccc2[nH]1 [Example 44, 1-(4-fluorophenyl)-N-[3-(5-morpholin-4-ylmethyl-1H-benzimidazol-2-yl)-1H-pyrazol-4-yl]-urea]",,< 10,
CC(C)(C)NC(=O)Nc1c[nH]nc1-c1nc2cc(CN3CCOCC3)ccc2[nH]1 [Example 45],< 10,< 10,
O=C(Nc1ccc(F)cc1F)Nc1c[nH]nc1-c1nc2cc(CN3CCOCC3)ccc2[nH]1 [Example 46],< 10,< 1,
O=C(Nc1cc(F)ccc1F)Nc1c[nH]nc1-c1nc2cc(CN3CCOCC3)ccc2[nH]1 [Example 47],< 1,< 1,
O=C(Nc1ccccc1F)Nc1c[nH]nc1-c1nc2cc(CN3CCOCC3)ccc2[nH]1 [Example 49],< 10,,
O=C(Nc1cccc(F)c1)Nc1c[nH]nc1-c1nc2cc(CN3CCOCC3)ccc2[nH]1 [Example 50],< 10,,
O=C(Nc1c[nH]nc1-c1nc2cc(CN3CCOCC3)ccc2[nH]1)NC1CCCCC1 [Example 51],< 10,< 10,
O=C(NCc1ccco1)Nc1c[nH]nc1-c1nc2cc(CN3CCOCC3)ccc2[nH]1 [Example 52],< 10,,
O=C(Nc1cc(F)cc(F)c1)Nc1c[nH]nc1-c1nc2cc(CN3CCOCC3)ccc2[nH]1 [Example 53],< 10,< 10,
O=C(Nc1c[nH]nc1-c1nc2cc(CN3CCOCC3)ccc2[nH]1)Nc1c(F)cc(F)cc1F [Example 54],< 1,< 1,
COc1ccc(Cl)cc1NC(=O)Nc1c[nH]nc1-c1nc2cc(CN3CCOCC3)ccc2[nH]1 [Example 56],< 10,,
"C[C@H](O)C(=O)O.O=C(Nc1c[nH]nc1-c1nc2cc(CN3CCOCC3)ccc2[nH]1)NC1CC1 [L-lactate salt, 1-cyclopropyl-3-[3-(5-morpholin-4-ylmethyl-1H-benzoimidazol-2-yl)-1H-pyrazol-4-yl]-urea, L-lactate salt]",,,hygroscopic behaviour (GVS isotherm) [2]: does not display hygroscopic behaviour and does not form a hydrate; change of XRPD pattern on storage [1]: do not change
"O.O.O=C(Nc1c[nH]nc1-c1nc2cc(CN3CCOCC3)ccc2[nH]1)NC1CC1 [dihydrate free base (FB2), 1-cyclopropyl-3-[3-(5-morpholin-4-ylmethyl-1H-benzoimidazol-2-yl)-1H-pyrazol-4-yl]-urea free base dihydrate]",,,change of XRPD pattern on storage [1]: do not change

# Reference: patent US8110573B2, “Pyrazole compounds that modulate the activity of CDK, GSK and aurora kinases” (Astex Therapeutics Limited, priority 2004, dated 2012)
